{"source": "patent US12298308B2", "about": "“Neoadjuvant chemotherapy induces breast cancer metastasis through a TMEM-mediated mechanism” (Albert Einstein College of Medicine, priority 2017, dated 2025)", "key": {"TMEM": {"test_system": "TMEM", "experiment": "Intravital imaging of TMEM-dependent vascular permeability (bursting)", "type": "in vivo, mouse", "excerpt": "Paclitaxel Induces TMEM-Dependent Vascular Permeability in Breast Tumors—Given that chemotherapy treatment may affect blood vessel dynamics by inducing angiogenesis (9, 11-13, 35-37), intravital imaging (IVI) (FIG. 2A) was used to investigate whether neoadjuvant paclitaxel induces TMEM-dependent (localized) or TMEM-independent (more universal) blood vessel leakage. […] As also reported previously (1), we never observed any bursting incidents without juxtaposition to a clearly defined TMEM site. Bursting was documented by the accumulation of Dextran-TMR signal over time around an active TMEM site, and no such accumulation was observed away from TMEM (FIGS. 2B-C). The entire time-lapse of these was recorded in videos, respectively. The intensity values from all TMEM-mediated bursting incidents observed in paclitaxel-treated mice were averaged and plotted over the entire time of bursting activity (FIG. 2D), which confirmed the transient nature of paclitaxel-induced TMEM-dependent vascular permeability.\n(§1) Drug Administration. The following drugs were administered in mice: Paclitaxel was given at 10 mg/Kg i.v every 5 days for 2 weeks; Doxorubicin was given at 5 mg/Kg i.v. every 5 days for 2 weeks; Cyclophosphamide was given at 120 mg/Kg i.p. only once; Rebastinib was given at 10 mg/Kg per os, every 3-4 days for 4 weeks.\nIntravital Imaging. Intravital imaging was performed using a custom-built two-laser multiphoton microscope, as previously described (57). Mice were anesthetized using 0.75-2.5% isofluorane, depilated. A skin flap procedure, previously developed (58), was performed by exposing the 4th or 5th mammary fat pad. Given the early stage of carcinoma and small tumor size, this necessitated the development of a custom fixturing technique where the exposed tissue was stabilized by affixing the edge of a 10-mm window fitted with an 8-mm clear aperture respectively with cyanoacrylate. The mouse was then placed on a fixturing plate, fitted to the respective window, on the microscope xy stage and imaging was performed in the center of the window away from the glue. The animal was placed in a heated chamber, AirTherm ATX forced air heater (WPI Inc.), maintained at physiologic temperature during the course of imaging, and supplemented with 50-100 uL of PBS per hour via the tail vein catheter. As previously described (1), three milligrams of 155-kDa TMR-dextran (Sigma) were administered via the catheter to visualize the vasculature. All images were reconstructed and analyzed in ImageJ (59), as described in Supplementary Methods."}, "breast tumors": {"test_system": "breast tumors", "experiment": "Tumor growth in mouse breast carcinoma models", "type": "in vivo", "details": "10 mg/Kg paclitaxel every five days, three times; vs non-treated controls", "excerpt": "Herein, the possibility was examined that neoadjuvant paclitaxel promotes TMEM assembly and cancer cell dissemination and metastasis. This hypothesis was investigated in the following breast carcinoma models: (i) transgenic MMTV-PyMT mice bearing spontaneous breast tumors, (ii) FVB mice transplanted orthotopically with tumors from MMTV-PyMT donors, and (iii) two patient-derived xenografts (PDX), HT17 and HT33, developed previously in our laboratory (31). […] Treatment of all groups began at the early carcinoma stage (tumor size of ˜0.3 cm) when there is minimal or absent necrosis. It was decided to work with the early-stage PyMT mouse mammary carcinoma model because it more accurately reflects clinically relevant scenarios where most women present with small tumors of <2 cm (32). At the end of treatment all tumors were histologically classified as invasive carcinomas.\nas §1\nAnimals and Animal Procedures. MMTV-PyMT mice were bred in-house at the Albert Einstein College of Medicine (AECOM). Generation of MMTV-PyMT Mena^−/− has been described previously (28). […]"}, "Mena": {"test_system": "Mena", "experiment": "Mena isoform gene expression by qRT-PCR on FFPE tumors", "type": "in vivo, mouse", "excerpt": "To test this hypothesis, qRT-PCR analysis was first performed for total Mena (panMena), Mena11a and Mena^INV on formalin-fixed paraffin-embedded (FFPE) tumors from all mouse models. […] As shown in the specific Mena^INV IF, the pattern of Mena^INV expression in PyMT mice was heterogeneous (FIG. 4F), consistent with previous observations (40). […] In addition, there was an inverse correlation for the anti-metastatic Mena11a (p<0.01, […]).\nGene Expression Analysis. Total RNA was extracted from formalin-fixed paraffin-embedded (FFPE) tissues using deparaffinization solution (Qiagen) and RNeasy FFPE Kit (Qiagen), followed by DNase treatment. An RT-PCR method SYBR Green (Qiagen) was used to measure expression levels of total Mena (PanMena), as well as of the specific Mena isoforms, Mena11a and Mena^INV, as described (29), with slight modifications, as detailed in Supplementary Methods. Mena^Calc expression has been previously defined as the expression level of all Mena isoforms combined after subtraction of Mena 11a from PanMena (2)."}, "breast cancer": {"test_system": "breast cancer", "details": "addition of paclitaxel into preoperative NAC regimen; cited from earlier work"}}}
{"compound": "CC(=O)O[C@H]1C(=O)[C@@]2(C)[C@H]([C@H](OC(=O)c3ccccc3)[C@]3(O)C[C@H](OC(=O)[C@H](O)[C@@H](NC(=O)c4ccccc4)c4ccccc4)C(C)=C1C3(C)C)[C@]1(OC(C)=O)CO[C@@H]1C[C@@H]2O", "note": "[paclitaxel]", "values": [{"measurement": "generalized blood vessel leakage of 155-KDa dextran into the extravascular space", "setting": "TMEM; intravital imaging, paclitaxel-treated mice", "value": "did not demonstrate generalized blood vessel leakage"}, {"measurement": "frequency of bursting", "setting": "TMEM; vs vehicle control", "value": "increased"}, {"measurement": "incidence of bursting (at least 1 bursting event in a ~4.5-hour imaging session)", "setting": "TMEM; vs vehicle control", "value": "increased"}, {"measurement": "tumor growth", "setting": "breast tumors", "value": "delayed tumor growth"}, {"measurement": "expression of Mena11a", "setting": "Mena", "value": "not that of the anti-metastatic Mena11a"}, {"measurement": "expression of Mena^Calc", "setting": "Mena; p<0.01", "value": "significantly increased"}, {"measurement": "expression of Mena^INV", "setting": "Mena; p<0.01", "value": "significantly increased"}, {"measurement": "expression of PanMena", "setting": "Mena; p<0.01", "value": "significantly increased"}, {"measurement": "overall survival", "setting": "breast cancer", "value": "does not improve"}, {"measurement": "rate of pathologic complete response (pCR)", "setting": "breast cancer", "value": "significantly increases"}]}
